In patent publication US20110288106A1, “ADENINE RECEPTOR LIGANDS” (Rheinische Friedrich-Wilhelms-Universitaet Bonn …, priority 2008, published 2011):
Counter-ions that a name gives are not always drawn.

Key:
rAde1R [1] = target: T1, rAde1R (Rattus norvegicus, UniProt Q7TN49); details: literature, Gorzalka et al. 2005; cited from earlier work
T1 construct: expressed in transfected cells; host or cells: 1321N1 human astrocytoma cells
T1 sequence (Q7TN49 1-304): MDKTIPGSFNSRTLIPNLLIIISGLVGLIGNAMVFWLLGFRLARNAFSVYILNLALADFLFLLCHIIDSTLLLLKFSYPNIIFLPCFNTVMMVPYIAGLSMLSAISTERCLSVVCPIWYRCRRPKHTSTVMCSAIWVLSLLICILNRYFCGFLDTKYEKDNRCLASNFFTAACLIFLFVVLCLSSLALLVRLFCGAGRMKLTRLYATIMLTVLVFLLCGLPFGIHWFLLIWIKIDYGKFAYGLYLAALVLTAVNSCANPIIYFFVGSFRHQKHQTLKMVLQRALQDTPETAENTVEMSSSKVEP

rAde1R [2] = target: T1, rAde1R; test: cAMP-dependent luciferase assay, inhibition of isoproterenol-stimulated cAMP accumulation; assay type: cell-based; details: for effect on isoproterenol-induced cAMP accumulation: 3 nM isoproterenol, n=3
Description: (§1) 1321N1 cells stably expressing the rAde1R were cultured in DMEM supplemented with 10% (v/v) FCS, L-glutamine (2 mM), penicillin (100 U/ml), streptomycin (100 U/ml) and 400 μg/ml G 418 at 37° C. under a humidified atmosphere containing 5% CO2. Cells were cultured in 75 cm^2 flasks (3.2×10^5) for 24 h without antibiotics so that they were 90-95% confluent before transfection. The cAMP responsive reporter plasmid (pCER-luc) or serum response element (pSRE-luc) was transfected into 1321N1 cells expressing rat adenine receptors using Lipofectamine 2000 as a transfection reagent.
Reporter cells were seeded at a density of […] cells/well in a 24-well plate 18-20 hr prior to assay. After removal of culture medium, cells were washed twice with Hanks' balanced salt solution (containing 20 mM HEPES, pH 7.3). Adenine and selected adenine derivatives were diluted in Hanks' balanced salt solution containing 3 nM isoproterenol and then incubated with reporter cells in the same buffer for 3 h at 37° C. The reaction was stopped by removal of the reaction buffer and the luciferase expression was determined using Bright-Glo™ Luciferase assay system (Promega) as described in the kit protocol. Plates were shaken for 2 min to ensure complete lysis of cells. Then the total volume from each well was transferred to a white 96-well plate (Greiner bio-one). Luminescence was determined using a NOVOstar microplate reader (BMG labtech); each well was counted for 2 s at 20° C.

Human adenine receptor = test: Radioligand binding assay, [3H]adenine competition, HEK293 cell membrane preparations; details: HEK293 cell membranes, vs. 10 nM [3H]adenine, mean ± SEM
Description: (§2) Competition assays with [8-^3H]adenine (27 Ci/mmol; GE Healthcare) were carried out as described previously (Gorzalka et al., Mol. Pharmacol. 2005, 67, 955-964). In brief, 50 μg of rat cortical membrane preparations or 100 μg of protein (HEK293 (human embryonic kidney) cell membrane preparations) was incubated with 10 nM [8^3H]adenine in 50 mM Tris-HCl buffer, pH 7.4, in a total volume of 200 μl. Inhibition curves were determined using 6 to 9 different concentrations of selected adenine derivative. Three separate experiments were performed each in triplicate. Nonspecific binding was determined by using 100 μM adenine. Incubations were carried out for 1 h at room temperature and terminated by rapid filtration through GF/B glass fiber filters (Whatman, Dassel, Germany). Filters were washed three times with ice-cold 50 mM Tris-HCl buffer, pH 7.4, 3 ml each. Filter-bound radioactivity was measured by liquid scintillation counting.
(§3) Data points represent means±SEM of three separate experiments each performed in triplicate.

Rat adenine receptor = target: T2, Rat adenine receptor (Rattus norvegicus, UniProt Q7TN49); test: Radioligand binding assay, [3H]adenine competition, rat cortical membrane preparations; details: rat cortex membranes, vs. 10 nM [3H]adenine, mean ± SEM
T2 construct: 50 μg of rat cortical membrane preparations; from tissue; host or cells: rat brain cortex membranes
T2 sequence (Q7TN49 1-304): T1 sequence (Q7TN49 1-304)
Description: as §2, §3

[3] = test system: non-transfected 1321N1 astrocytoma cells; test: Erk phosphorylation assay (SRE-dependent luciferase), non-transfected cells; assay type: cell-based, human; details: 6 h
rAde1R [4] = target: T1, rAde1R; test: Erk phosphorylation assay (SRE-dependent luciferase), 1321N1 cells expressing rAde1R; assay type: cell-based; details: 1321N1 astrocytoma cells stably expressing rAde1R, 6 h
Description: as §1
Erk phosphorylation was investigated by a gene reporter assay measuring SRE-dependent luciferase activity in astrocytoma cells stably transfected with the rat adenine receptor. The cells were seeded in a 24-well plate prior to the assay. The culture medium was removed and cells were washed twice with Hanks' balanced salt solution without HEPES, pH 7.3. Adenine was diluted in the same buffer and then added to the cells, which were incubated for 6 h at 37° C. The reaction was stopped by removal of the reaction buffer and the luciferase expression was determined as described before.

[5] = 10 μM compound, 1321N1 cells expressing rAde1R

Row | melting point [°C] | Ki (Rat adenine receptor) [µM] | Structure (SMILES) | Ki (Human adenine receptor) [µM] | also measured
1 | 171 | – | CCCNCCC(=O)Nc1ncnc2[nH]cnc12 (as salt: hydrochloride) [Example 11, 3-Propyl-amino-N(9H-purin-6-yl)propionamide dihydrochloride] | – | –
2 | 205 | 0.949 ± 0.135 | CN(CCC(=O)Nc1ncnc2[nH]cnc12)C(=O)OC(C)(C)C [Example 1, 3-(tert-Butyloxycarbonyl-methyl-amino)-N(9H-purin-6-yl)propionamide] | 5.47 ± 1.28 | effect on isoproterenol-induced cAMP accumulation (rAde1R [2]; [5]): adenine receptor agonists
3 | 198 | 2.93 ± 0.4 | CCN(CCC(=O)Nc1ncnc2[nH]cnc12)C(=O)OC(C)(C)C [Example 2, 3-(tert-Butyloxycarbonyl-ethyl-amino)-N(9H-purin-6-yl)propionamide] | 7.7 ± 2.4 | –
4 | 205 | 11.8 ± 0.8 | CCCN(CCC(=O)Nc1ncnc2[nH]cnc12)C(=O)OC(C)(C)C [Example 3, 3-(tert-Butyloxycarbonyl-propyl-amino)-N(9H-purin-6-yl)propionamide] | ≥ 100 | –
5 | 185 | 1.56 ± 0.026 | CCCCCCN(CCC(=O)Nc1ncnc2[nH]cnc12)C(=O)OC(C)(C)C [Example 4, 3-(tert-Butyloxycarbonyl-hexyl-amino)-N(9H-purin-6-yl)propionamide] | 19.7 ± 0.7 | –
6 | 202 | 9.02 ± 0.55 | CC(C)(C)OC(=O)N(CCC(=O)Nc1ncnc2[nH]cnc12)Cc1ccccc1 [Example 5, 3-(tert-Butyloxycarbonyl-benzyl-amino)-N(9H-purin-6-yl)propionamide] | 42.1 ± 1.8 | –
7 | 162 | 9.07 ± 0.8 | CC(C)(C)OC(=O)N(CCC(=O)Nc1ncnc2[nH]cnc12)CCc1ccccc1 [Example 6, 3-(tert-Butyloxycarbonyl-phenethyl-amino)-N(9H-purin-6-yl)propionamide] | ≥ 100 | –
8 | 191 | 0.334 ± 0.031 | CC(C)(C)OC(=O)NCCC(=O)Nc1ncnc2[nH]cnc12 [Example 7, 3-tert-Butyloxycarbonylamino-N(9H-purin-6-yl)propionamide] | 0.719 ± 0.081 | –
9 | 223 | 3.39 ± 0.56 | CC(C)(C)OC(=O)NCCCC(=O)Nc1ncnc2[nH]cnc12 [Example 8, 4-tert-Butyloxycarbonylamino-N(9H-purin-6-yl)butyramide] | 2.68 ± 0.37 | –
10 | – | 1.29 ± 0.24 | CCCNCCC(=O)Nc1ncnc2[nH]cnc12 [Example 11, 3-Propyl-amino-N(9H-purin-6-yl)propionamide dihydrochloride] | 6.85 ± 2.17 | –

Second part, the compound before the results:

Row | Structure (SMILES) | melting point [°C] | Ki (Rat adenine receptor) [µM] | Ki (Human adenine receptor) [µM] | also measured
11 | CNCCC(=O)Nc1ncnc2[nH]cnc12 (as salt: hydrochloride) [Example 9, 3-Methyl-amino-N(9H-purin-6-yl)propionamide dihydrochloride] | 213 | – | – | –
12 | CCNCCC(=O)Nc1ncnc2[nH]cnc12 (as salt: hydrochloride) [Example 10, 3-Ethyl-amino-N(9H-purin-6-yl)propionamide dihydrochloride] | 216 | – | – | –
13 | O=C(CCNCc1ccccc1)Nc1ncnc2[nH]cnc12 (as salt: hydrochloride) [Example 12, 3-Benzyl-amino-N(9H-purin-6-yl)propionamide dihydrochloride] | 197 | – | – | –
14 | O=C(CCNCCc1ccccc1)Nc1ncnc2[nH]cnc12 (as salt: hydrochloride) [Example 13, 3-Phenethyl-amino-N(9H-purin-6-yl)propionamide dihydrochloride] | 196 | – | – | –
15 | Cn1cnc2ncnc-2c1N [1-methyl-adenine] | – | – | – | values at the rAde1R (rAde1R [1]): micromolar range
16 | Cn1cnc(N)c2ncnc1-2 [3-methyl-adenine] | – | – | – | values at the rAde1R (rAde1R [1]): micromolar range
17 | Cn1cnc2ncnc(N)c21 [7-methyl-adenine] | – | – | – | values at the rAde1R (rAde1R [1]): micromolar range
18 | Cn1cnc2c(N)ncnc21 [9-methyl-adenine] | – | – | – | values at the rAde1R (rAde1R [1]): micromolar range
19 | CNCCC(=O)Nc1ncnc2[nH]cnc12 [Example 9, 3-Methyl-amino-N(9H-purin-6-yl)propionamide dihydrochloride] | – | 0.292 ± 0.056 | 1.83 ± 0.09 | effect on isoproterenol-induced cAMP accumulation (rAde1R [2]; [5]): no significant effect; Kb (rAde1R [2]; calculated from shift of adenine curve by 10 μM compound 9): 165 nM; effect on concentration-response curve of adenine (rAde1R [2]; compound 9 at 10 μM, 1321N1 cells expressing rAde1R, FIG. 5): shifted the concentration-response curve of adenine to the right proving that it is an antagonist
20 | CCNCCC(=O)Nc1ncnc2[nH]cnc12 [Example 10, 3-Ethyl-amino-N(9H-purin-6-yl)propionamide dihydrochloride] | – | 0.508 ± 0.163 | 1.34 ± 0.48 | effect on isoproterenol-induced cAMP accumulation (rAde1R [2]; [5]): adenine receptor agonists
21 | O=C(CCNCc1ccccc1)Nc1ncnc2[nH]cnc12 [Example 12, 3-Benzyl-amino-N(9H-purin-6-yl)propionamide dihydrochloride] | – | 0.852 ± 0.131 | 3.27 ± 1.23 | effect on isoproterenol-induced cAMP accumulation (rAde1R [2]; [5]): adenine receptor agonists
22 | O=C(CCNCCc1ccccc1)Nc1ncnc2[nH]cnc12 [Example 13, 3-Phenethyl-amino-N(9H-purin-6-yl)propionamide dihydrochloride] | – | 2.12 ± 0.07 | 6.93 ± 0.83 | –
23 | Cl.NCCC(=O)Nc1ncnc2[nH]cnc12 [Example 14, 3-Amino-N(9H-purin-6-yl)propionamide hydrochloride] | 204 | 0.0215 ± 0.0056 | 0.0447 ± 0.0034 | effect on isoproterenol-induced cAMP accumulation (rAde1R [2]; 1 μM compound, 1321N1 cells expressing rAde1R): adenine receptor agonists; inhibition of isoproterenol-stimulated cAMP accumulation by different concentrations (rAde1R [2]; 1321N1 cells expressing rAde1R, FIG. 4): concentration-dependent inhibition
24 | Cl.NCCCC(=O)Nc1ncnc2[nH]cnc12 [Example 15, 4-Amino-N(9H-purin-6-yl)butyramide hydrochloride] | 199 | 0.0805 ± 0.003 | 0.149 ± 0.045 | effect on isoproterenol-induced cAMP accumulation (rAde1R [2]; [5]): adenine receptor agonists
25 | Nc1ncnc2nc[nH]c12 [adenine] | – | – | – | Ki (rAde1R [1]): 29.9 nM; SRE-dependent luciferase expression / erk phosphorylation [3]: no effect; EC50 (rAde1R [2]; in the absence of compound 9): 2.24 ± 1.83 nM; EC50 (rAde1R [2]; in the presence of compound 9 (10 μM)): 115 ± 42 nM; SRE-dependent luciferase expression / erk phosphorylation (rAde1R [4]): dose-dependent stimulation of erk phosphorylation
